The test has as its system 324938-238-R-J1-PDC complex spheroid viability. The test can be described thus: Anticancer human tumor 324938-238-R-J1-PDC patient-derived bladder carcinoma cell line growth inhibition. The conditions noted are these: for viability, T/C: stronger effect = lower value. An outline of the steps:
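Complex spheroids of tumor cells with HUVEC and human MSCs, exposed to iadademstat combined with other agents. Each agent tested in half-log steps from near clinical Cmax (else 10 microM top), DMSO ≤0.25%.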

Where [1] appears, read: curve of first compound, second compound 0.1 µM.
The mark [2] stands for this setting: curve of first compound, second compound 0.316 µM.
The mark [3] stands for this setting: curve of first compound, second compound 1 µM.
Where [4] appears, read: curve of first compound, second compound 3.16 µM.
The mark [5] stands for this setting: curve of first compound, second compound 10 µM.
[6] abbreviates: second compound 0.1 µM, first compound 0.0316 µM.
Setting [7] is: second compound 0.1 µM, first compound 0.1 µM.
Setting [8] is: second compound 0.1 µM, first compound 0.316 µM.
The mark [9] stands for this setting: second compound 0.1 µM, first compound 1 µM.
Setting [10] is: second compound 0.316 µM, first compound 0.0316 µM.
Setting [11] is: second compound 0.316 µM, first compound 0.1 µM.
Setting [12] is: second compound 0.316 µM, first compound 0.316 µM.
[13] abbreviates: second compound 0.316 µM, first compound 1 µM.
Setting [14] is: second compound 1 µM, first compound 0.0316 µM.
[15] abbreviates: second compound 1 µM, first compound 0.1 µM.
Setting [16] is: second compound 1 µM, first compound 0.316 µM.
[17] abbreviates: second compound 1 µM, first compound 1 µM.
[18] abbreviates: second compound 3.16 µM, first compound 0.0316 µM.
[19] abbreviates: second compound 3.16 µM, first compound 0.1 µM.
Setting [20] is: second compound 3.16 µM, first compound 0.316 µM.
The mark [21] stands for this setting: second compound 3.16 µM, first compound 1 µM.
The mark [22] stands for this setting: second compound 10 µM, first compound 0.0316 µM.
The mark [23] stands for this setting: second compound 10 µM, first compound 0.1 µM.
Where [24] appears, read: second compound 10 µM, first compound 0.316 µM.
Where [25] appears, read: second compound 10 µM, first compound 1 µM.
[26] abbreviates: second compound 0.1 µM, first compound 0.00316 µM.
Where [27] appears, read: second compound 0.1 µM, first compound 0.01 µM.
The mark [28] stands for this setting: second compound 0.316 µM, first compound 0.00316 µM.
Setting [29] is: second compound 0.316 µM, first compound 0.01 µM.
Where [30] appears, read: second compound 1 µM, first compound 0.00316 µM.
Setting [31] is: second compound 1 µM, first compound 0.01 µM.
[32] abbreviates: second compound 3.16 µM, first compound 0.00316 µM.
The mark [33] stands for this setting: second compound 3.16 µM, first compound 0.01 µM.
Where [34] appears, read: second compound 10 µM, first compound 0.00316 µM.
[35] abbreviates: second compound 10 µM, first compound 0.01 µM.

Where “and” joins values, the source holds several entries; their conditions need not be identical. Identical values can stand only once. Where only a bound is given, the exact number is not on record here.
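Note: spheroids exposed to agents for 7 days before readout.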

Regarding `O=C(c1cc(Cc2n[nH]c(=O)c3ccccc23)ccc1F)N1CCN(C(=O)C2CC2)CC1` + NC1CCC(NC2CC2c2ccccc2)CC1, the IC50 under setting [1] was 2900 nM; the IC50 under setting [2] came out at 2760 nM; the IC50 under setting [3] was 3970 nM; the IC50 under setting [4] amounted to 2720 nM; the IC50 under setting [5] was determined as 2480 nM. For the same compound, the viability, T/C is, setting by setting: under setting [6], 80.8%; under setting [7], 80.9%; under setting [8], 86.4%; under setting [9], 68.1%; (second compound 0.1 µM, first compound 3.16 µM) 49.9%; (second compound 0.1 µM, first compound 10 µM) 41.5%. Also, the viability, T/C under setting [10] was 78.7%; the viability, T/C under setting [11] is 82.7%; the viability, T/C under setting [12] was 83.7%; the viability, T/C under setting [13] is 64.4%; the viability, T/C (second compound 0.316 µM, first compound 3.16 µM) was 49.8%; the viability, T/C (second compound 0.316 µM, first compound 10 µM) was 36.5%. Besides, the viability, T/C reads like this: under setting [14], 77.7%; under setting [15], 71.3%; under setting [16], 80%; under setting [17], 69.3%; (second compound 1 µM, first compound 3.16 µM) 53.3%; (second compound 1 µM, first compound 10 µM) 37.9%. Also, the viability, T/C reads like this: under setting [18], 73.2%; under setting [19], 74.1%; under setting [20], 73.2%; under setting [21], 71%; (second compound 3.16 µM, first compound 3.16 µM) 46.9%; (second compound 3.16 µM, first compound 10 µM) 39.6%. Also, the viability, T/C was 70.6% under setting [22]; 65.8% under setting [23]; 77% under setting [24]; 59.3% under setting [25]; 49.9% (second compound 10 µM, first compound 3.16 µM); 45.1% (second compound 10 µM, first compound 10 µM).
For the compound `CC[C@@]1(O)C(=O)OCc2c1cc1n(c2=O)Cc2cc3c(CN(C)C)c(O)ccc3nc2-1` + NC1CCC(NC2CC2c2ccccc2)CC1, the IC50 by setting is: under setting [1], 1.54 nM; under setting [2], 1.49 nM; under setting [3], 1.58 nM; under setting [4], 1.42 nM; under setting [5], 1.16 nM. The viability, T/C (second compound 0.1 µM, first compound 0.000316 µM) is 84.7%; the viability, T/C (second compound 0.1 µM, first compound 0.001 µM) was 64.7%; the viability, T/C under setting [26] was 25.5%; the viability, T/C under setting [27] was 9.38%; the viability, T/C under setting [6] was 7.9%; the viability, T/C under setting [7] was 8.7%. For the same compound, the viability, T/C is 82.5% (second compound 0.316 µM, first compound 0.000316 µM); 63.2% (second compound 0.316 µM, first compound 0.001 µM); 25.3% under setting [28]; 9.31% under setting [29]; 9.04% under setting [10]; 8.45% under setting [11]. In addition, the viability, T/C was 83.2% (second compound 1 µM, first compound 0.000316 µM); 66.3% (second compound 1 µM, first compound 0.001 µM); 25.4% under setting [30]; 8.84% under setting [31]; 9.27% under setting [14]; 8.86% under setting [15]. The viability, T/C reads like this: (second compound 3.16 µM, first compound 0.000316 µM) 74.5%; (second compound 3.16 µM, first compound 0.001 µM) 61.1%; under setting [32], 24.9%; under setting [33], 10.1%; under setting [18], 8.96%; under setting [19], 9.71%. Moreover, the viability, T/C is 74.2% (second compound 10 µM, first compound 0.000316 µM); 53.7% (second compound 10 µM, first compound 0.001 µM); 23.9% under setting [34]; 9.28% under setting [35]; 9.85% under setting [22]; 9.19% under setting [23].
Consider `Nc1ncn(C2CC(O)C(CO)O2)c(=O)n1` (stereo unspecified), for which the viability, T/C (compound 0.00316 µM) is 98.2% and 98.1%; the viability, T/C (compound 0.01 µM) is 90.8% and 96.7%; the viability, T/C (compound 0.0316 µM) was 81% and 89.9%; the viability, T/C (compound 0.1 µM) was 75.9% and 69.5%; the viability, T/C (compound 0.316 µM) is 62.2% and 57.2%; the viability, T/C (compound 1 µM) was 48.6% and 46.9%. Also, where the note is “curve of compound”, the 50% inhibitory concentration (IC50) is 927 nM and 722 nM.
As for `Cn1ncnc1C1c2n[nH]c(=O)c3cc(F)cc(c23)NC1c1ccc(F)cc1` (stereo unspecified), the viability, T/C by setting is: (compound 0.000316 µM) 99.3% and 106%; (compound 0.001 µM) 102% and 99.5%; (compound 0.00316 µM) 99.7% and 90.2%; (compound 0.01 µM) 92.3% and 94.8%; (compound 0.0316 µM) 82.6% and 76%; (compound 0.1 µM) 68.6% and 58.2%. Besides, the IC50 (curve of compound) is over 100 nM.
Turning to `NC1CC1c1ccc(-c2cccc(O)c2)cc1` (stereo unspecified), the viability, T/C (compound 0.1 µM) is 86.9% and 102% and 91.3%; the viability, T/C (compound 3.16 µM) was 73.9% [middle of 23 runs]. Further, the IC50 (compound alone, run of 12/07/2021) was over 10000 nM.
As for `O=C(C=Cn1cnc(-c2cc(C(F)(F)F)cc(C(F)(F)F)c2)n1)NNc1cnccn1` + NC1CC1c1ccc(-c2cccc(O)c2)cc1, the IC50 is under 3.16 nM under setting [1]; under 3.16 nM under setting [2]; under 3.16 nM under setting [3]; under 3.16 nM under setting [4]; under 3.16 nM under setting [5]. Also, the viability, T/C reads like this: under setting [26], 46%; under setting [27], 26.3%; under setting [6], 14.1%; under setting [7], 4.16%; under setting [8], 3%; under setting [9], 1.86%. In addition, the viability, T/C reads like this: under setting [28], 42.2%; under setting [29], 27%; under setting [10], 14.2%; under setting [11], 5.76%; under setting [12], 2.95%; under setting [13], 1.73%. The viability, T/C under setting [30] was 36.1%; the viability, T/C under setting [31] was 25.1%; the viability, T/C under setting [14] was 13.8%; the viability, T/C under setting [15] is 5.75%; the viability, T/C under setting [16] was 2.87%; the viability, T/C under setting [17] was 2.29%. Besides, the viability, T/C is 38.3% under setting [32]; 27.7% under setting [33]; 15.4% under setting [18]; 6% under setting [19]; 2.83% under setting [20]; 2.25% under setting [21]. Moreover, the viability, T/C is 42.1% under setting [34]; 30.2% under setting [35]; 20.4% under setting [22]; 11.6% under setting [23]; 5.72% under setting [24]; 2.7% under setting [25].
Take `NS(=O)(=O)OCC1CC(n2ccc3c(NC4CCc5ccccc54)ncnc32)CC1O` (stereo unspecified): the viability, T/C is 103% and 106% (compound 0.00949 µM); 106% and 112% (compound 0.03 µM); 93.4% and 94% (compound 0.0949 µM); 54.2% and 43.8% (compound 0.3 µM); 12.5% and 10.2% (compound 0.949 µM); 15.6% and 11.9% (compound 3 µM). Further, the IC50 (curve of compound) was 326 nM and 256 nM.
As for `Nc1ncn(C2CC(O)C(CO)S2)c(=O)n1` (stereo unspecified), the viability, T/C by setting is: (compound 0.000949 µM) 97.4% and 106%; (compound 0.003 µM) 88.2% and 90.7%; (compound 0.00949 µM) 72.2% and 69.6%; (compound 0.03 µM) 51.5% and 46.5%; (compound 0.0949 µM) 33.2% and 27.5%; (compound 0.3 µM) 22.2% and 17.4%. The IC50 (curve of compound) is 32.8 nM and 24.8 nM.

As usually defined, the IC50 is the concentration that gives 50% inhibition. The term viability, T/C denotes the result in the treated group divided by that in the control group, in per cent.

The record behind these values is PubChem BioAssay AID1918935 (Molecular Pharmacology Branch, DTP, NCI, 2023).
